Measured values from patent US8148391B2 (Cephalon, Inc., priority 2006, dated 2012).
Where two headings read alike, the source gives them in different places. Blank lines part the entries; values can stand above or below the molecule they belong to.

Assays:
[1] = biological target: T1, baculovirus-expressed ALK (Homo sapiens, UniProt Q9UM73); assay: ALK Kinase Assay (ELISA-type, time-resolved fluorescence); assay type: biochemical
T1 construct: host or cells: baculovirus expression system
Outline: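 Substrate coating: phospholipase C-γ, 10 μg/mL in TBS. Kinase step: 30 ng/ml ALK, 15 min, 37° C. Detection and analysis: Eu-N1 PT66 antibody, with IC50 fitted as a sigmoidal variable-slope dose-response curve.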

[2] = biological target: T2, c-Met (cytoplasmic domain) (Homo sapiens, UniProt P08581); assay: c-Met Kinase Assay (same methods as for ALK, with modifications); assay type: biochemical
T2 construct: 10 ng/mL c-Met (cytoplasmic domain, Invitrogen Corporation #PV3143); purchased Invitrogen Corporation PV3143
T2 sequence (P08581 956-1390 limits assumed): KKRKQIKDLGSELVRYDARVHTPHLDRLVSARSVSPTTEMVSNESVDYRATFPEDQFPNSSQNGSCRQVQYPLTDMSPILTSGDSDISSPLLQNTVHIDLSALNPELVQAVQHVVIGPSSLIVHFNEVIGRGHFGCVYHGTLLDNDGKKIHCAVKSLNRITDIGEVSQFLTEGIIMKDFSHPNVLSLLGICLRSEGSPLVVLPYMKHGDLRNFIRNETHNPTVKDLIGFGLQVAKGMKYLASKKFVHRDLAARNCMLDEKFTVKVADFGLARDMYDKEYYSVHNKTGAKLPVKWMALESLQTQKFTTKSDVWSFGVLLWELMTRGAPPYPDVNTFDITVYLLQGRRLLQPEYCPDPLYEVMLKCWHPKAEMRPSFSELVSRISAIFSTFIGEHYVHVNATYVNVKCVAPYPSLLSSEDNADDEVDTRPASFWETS
Outline: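 Wells were coated with 10 μg/mL phospholipase C-γ substrate in TBS, and reactions were started with 10 ng/mL c-Met cytoplasmic domain and run at 37° C for 15 minutes. Phosphorylated product was detected with Eu-N1-labeled PT66 antibody. IC50 values came from sigmoidal variable-slope fits of percent inhibition versus log compound concentration.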

[3] = 1 μM ATP (Km level), 30 ng/ml ALK, 37° C., 15 minutes, read-out: ALK Activity (ALK kinase inhibition, IC50 class)
[4] = 1 μM ATP (Km level), 10 ng/mL c-Met, read-out: cMet Activity (c-Met kinase inhibition, IC50 class)
[5] = 1 μM ATP (Km level), read-out: ALK Activity (ALK Kinase Inhibition, IC50)
[6] = 1 μM ATP (Km level), read-out: cMet Activity (c-Met Kinase Inhibition, IC50)
[7] = ALK kinase inhibition, 1 μM ATP, read-out: ALK Activity
[8] = c-Met kinase inhibition, 1 μM ATP, read-out: cMet Activity
[9] = ALK kinase inhibition, 1 μM ATP (Km level), read-out: ALK Activity
[10] = c-Met kinase inhibition, 1 μM ATP (Km level), read-out: cMet Activity

T1 sequence (Q9UM73 19-1620): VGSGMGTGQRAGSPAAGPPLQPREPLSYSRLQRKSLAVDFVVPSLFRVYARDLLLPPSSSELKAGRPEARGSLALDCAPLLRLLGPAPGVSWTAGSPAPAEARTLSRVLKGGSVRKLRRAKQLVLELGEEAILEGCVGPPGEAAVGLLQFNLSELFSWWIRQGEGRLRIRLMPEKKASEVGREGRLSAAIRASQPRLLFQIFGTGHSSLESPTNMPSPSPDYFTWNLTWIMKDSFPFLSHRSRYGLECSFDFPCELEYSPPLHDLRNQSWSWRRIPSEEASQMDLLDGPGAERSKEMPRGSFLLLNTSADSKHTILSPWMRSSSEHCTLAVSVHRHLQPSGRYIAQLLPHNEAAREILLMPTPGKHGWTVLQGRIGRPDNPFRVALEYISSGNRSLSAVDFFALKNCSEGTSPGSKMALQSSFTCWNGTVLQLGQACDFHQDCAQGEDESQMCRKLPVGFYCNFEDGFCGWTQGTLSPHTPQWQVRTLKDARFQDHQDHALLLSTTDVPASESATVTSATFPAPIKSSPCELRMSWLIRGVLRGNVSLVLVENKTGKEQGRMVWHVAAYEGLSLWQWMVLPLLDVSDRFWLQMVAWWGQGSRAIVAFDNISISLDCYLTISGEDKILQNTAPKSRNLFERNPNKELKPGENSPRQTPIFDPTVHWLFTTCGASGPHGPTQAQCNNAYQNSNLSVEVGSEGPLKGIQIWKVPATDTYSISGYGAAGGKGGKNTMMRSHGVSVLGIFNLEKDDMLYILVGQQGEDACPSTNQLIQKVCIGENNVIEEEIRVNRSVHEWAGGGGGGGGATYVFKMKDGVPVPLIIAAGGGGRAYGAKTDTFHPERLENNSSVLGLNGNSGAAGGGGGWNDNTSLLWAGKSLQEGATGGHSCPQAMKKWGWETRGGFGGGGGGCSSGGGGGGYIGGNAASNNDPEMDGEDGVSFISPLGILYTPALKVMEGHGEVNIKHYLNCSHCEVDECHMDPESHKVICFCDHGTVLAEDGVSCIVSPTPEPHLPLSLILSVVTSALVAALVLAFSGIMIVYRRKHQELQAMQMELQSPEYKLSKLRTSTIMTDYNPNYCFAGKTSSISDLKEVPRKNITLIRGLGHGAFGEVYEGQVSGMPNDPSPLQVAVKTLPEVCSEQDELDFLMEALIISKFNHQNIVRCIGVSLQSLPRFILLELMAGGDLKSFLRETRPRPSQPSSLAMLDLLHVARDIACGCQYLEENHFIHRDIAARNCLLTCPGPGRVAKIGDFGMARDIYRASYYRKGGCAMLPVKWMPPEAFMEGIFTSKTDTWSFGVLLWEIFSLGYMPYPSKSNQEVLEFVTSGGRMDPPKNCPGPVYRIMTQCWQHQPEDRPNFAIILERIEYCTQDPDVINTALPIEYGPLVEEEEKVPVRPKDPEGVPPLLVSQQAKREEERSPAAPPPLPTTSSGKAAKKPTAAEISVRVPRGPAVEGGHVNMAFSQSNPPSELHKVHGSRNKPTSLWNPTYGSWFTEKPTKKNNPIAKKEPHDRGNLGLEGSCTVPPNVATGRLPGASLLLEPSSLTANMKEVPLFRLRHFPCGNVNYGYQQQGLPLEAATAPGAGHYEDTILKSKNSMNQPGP

Structure (SMILES): Cn1ccnc1-c1ccccc1Nc1nc(Nc2ccc3c(c2)CCC(NCC(F)(F)F)CC3)ncc1Cl (stereo not shown) [Example 655, 5-Chloro-N*4*-[2-(1-methyl-1H-imidazol-2-yl)-phenyl]-N*2*-[7-(2,2,2-trifluoro-ethylamino)-6,7,8,9-tetrahydro-5H-benzocyclohepten-2-yl]-pyrimidine-2,4-diamine]
IC50 [1, 5]: < 0.1 µM | IC50 [2, 6]: 0.1 to 1 µM

Structure (SMILES): CNC(=O)c1sccc1Nc1nc(Nc2ccc3c(c2)OCCCN3C(=O)OC2CCCN(C)C2)ncc1Cl (stereo not shown) [Example 1440, 3-[5-Chloro-4-(2-methylcarbamoyl-thiophen-3-ylamino)-pyrimidin-2-ylamino]-7,8-dihydro-6H-5-oxa-9-aza-benzocycloheptene-9-carboxylic acid 1-methyl-piperidin-3-yl ester]
IC50 [1, 7]: 0.1 to 1 µM | IC50 [2, 8]: 0.1 to 1 µM

Structure (SMILES): CCN1C(=O)CCCc2ccc(Nc3ncc(Cl)c(Nc4c(C)cccc4C(=O)NC)n3)cc21 [Example 360, 2-[5-Chloro-2-(1-ethyl-2-oxo-2,3,4,5-tetrahydro-1H-benzo[b]azepin-8-ylamino)-pyrimidin-4-ylamino]-3,N-dimethyl-benzamide]
IC50 [1, 9]: 1 to 10 µM | IC50 [2, 10]: < 0.1 µM

Structure (SMILES): CCN1CCc2ccc(Nc3ncc(Cl)c(Nc4ccc(N5CCOCC5)cc4)n3)cc2CC1 [Example 443, 5-Chloro-N*2*-(3-ethyl-2,3,4,5-tetrahydro-1H-benzo[d]azepin-7-yl)-N*4*-(4-morpholin-4-yl-phenyl)-pyrimidine-2,4-diamine]
IC50 [1, 9]: < 0.1 µM | IC50 [2, 10]: 1 to 10 µM

Structure (SMILES): CCN1C(=O)C(N)CCc2c1ccc(Nc1ncc(Cl)c(Nc3ccccc3S(=O)(=O)N(C)C)n1)c2OC (stereo not shown) [Example 1336, 2-[2-(3-Amino-1-ethyl-6-methoxy-2-oxo-2,3,4,5-tetrahydro-1H-benzo[b]azepin-7-ylamino)-5-chloro-pyrimidin-4-ylamino]-N,N-dimethyl-benzenesulfonamide]
IC50 [1, 3]: < 0.1 µM | IC50 [2, 4]: > 10 µM

Structure (SMILES): CCN1C(=O)CCC(C)(C)c2ccc(Nc3ncc(Cl)c(Nc4c(F)cc(F)cc4C(=O)NC)n3)cc21 [Example 1615, 2-[5-Chloro-2-(1-ethyl-5,5-dimethyl-2-oxo-2,3,4,5-tetrahydro-1H-benzo[b]azepin-8-ylamino)-pyrimidin-4-ylamino]-3,5-difluoro-N-methyl-benzamide]
IC50 [1, 7]: < 0.1 µM | IC50 [2, 8]: < 0.1 µM

Structure (SMILES): NC(=O)[C@@H]1[C@H](Nc2nc(Nc3ccc4c(c3)CCC(NCC(F)F)CC4)ncc2Cl)[C@H]2C=C[C@@H]1C2 (stereo partly drawn) [Example 665, (1S,2S,3R,4R)-3-{5-Chloro-2-[7-(2,2-difluoro-ethylamino)-6,7,8,9-tetrahydro-5H-benzocyclohepten-2-ylamino]-pyrimidin-4-ylamino}-bicyclo[2.2.1]hept-5-ene-2-carboxylic acid amide]
IC50 [1, 5]: < 0.1 µM | IC50 [2, 6]: 0.1 to 1 µM

Structure (SMILES): COc1cc2c(cc1Nc1ncc(Cl)c(N[C@@H]3CCCC[C@H]3NS(C)(=O)=O)n1)CCN(CC(C)(F)F)CC2 [Example 784, N-((1R,2R)-2-{5-Chloro-2-[3-(2,2-difluoro-propyl)-8-methoxy-2,3,4,5-tetrahydro-1H-benzo[d]azepin-7-ylamino]-pyrimidin-4-ylamino}-cyclohexyl)-methanesulfonamide]
IC50 [1, 5]: < 0.1 µM | IC50 [2, 6]: > 10 µM

Structure (SMILES): COc1cc2c(cc1Nc1ncc(F)c(Nc3ccc(N4CCOCC4)cc3OC)n1)CCN(CC(=O)OC(C)C)CC2 [Example 811, {7-[5-Fluoro-4-(2-methoxy-4-morpholin-4-yl-phenylamino)-pyrimidin-2-ylamino]-8-methoxy-1,2,4,5-tetrahydro-benzo[d]azepin-3-yl}-acetic acid isopropyl ester]
IC50 [1, 5]: 0.1 to 1 µM | IC50 [2, 6]: > 10 µM

Structure (SMILES): CNS(=O)(=O)c1ccccc1Nc1nc(Nc2ccc3c(c2)C2CC3CN(S(C)(=O)=O)C2)ncc1Cl (stereo not shown) [Example 163, 2-[5-Chloro-2-(10-methanesulfonyl-10-aza-tricyclo[6.3.1.0*2,7*]dodeca-2,4,6-trien-4-ylamino)-pyrimidin-4-ylamino]-N-methyl-benzenesulfonamide]
IC50 [1, 9]: < 0.1 µM | IC50 [2, 10]: 1 to 10 µM

Structure (SMILES): COc1cc2c(cc1Nc1ncc(Cl)c(Nc3ccccc3-n3cccn3)n1)CCN(CC(=O)N(C)C)CC2 [Example 1320, 2-{7-[5-Chloro-4-(2-pyrazol-1-yl-phenylamino)-pyrimidin-2-ylamino]-8-methoxy-1,2,4,5-tetrahydro-benzo[d]azepin-3-yl}-N,N-dimethyl-acetamide]
IC50 [1, 3]: < 0.1 µM | IC50 [2, 4]: > 10 µM

Structure (SMILES): Cc1cccc(C(N)=O)c1Nc1nc(Nc2ccc3c(c2)C(C)(C)CCC(=O)N3)ncc1Cl [Example 1476, 2-[5-Chloro-2-(5,5-dimethyl-2-oxo-2,3,4,5-tetrahydro-1H-benzo[b]azepin-7-ylamino)-pyrimidin-4-ylamino]-3-methyl-benzamide]
IC50 [1, 7]: 0.1 to 1 µM | IC50 [2, 8]: 1 to 10 µM

Structure (SMILES): COCCN1C(=O)CCC(C)(C)c2ccc(Nc3ncc(Cl)c(N[C@H]4[C@@H](C(N)=O)[C@@H]5C=C[C@H]4C5)n3)cc21 [Example 1583, (1S,2S,3R,4R)-3-{5-Chloro-2-[1-(2-methoxy-ethyl)-5,5-dimethyl-2-oxo-2,3,4,5-tetrahydro-1H-benzo[b]azepin-8-ylamino]-pyrimidin-4-ylamino}-bicyclo[2.2.1]hept-5-ene-2-carboxylic acid amide]
IC50 [1, 7]: < 0.1 µM | IC50 [2, 8]: 0.1 to 1 µM

Structure (SMILES): CCN1CCc2ccc(Nc3ncc(Cl)c(Nc4ccccc4C(=O)NC)n3)c(OC)c2CC1 [Example 234, 2-[5-Chloro-2-(3-ethyl-6-methoxy-2,3,4,5-tetrahydro-1H-benzo[d]azepin-7-ylamino)-pyrimidin-4-ylamino]-N-methyl-benzamide]
IC50 [1, 9]: < 0.1 µM | IC50 [2, 10]: > 10 µM

Continued, values first:

IC50 [1, 3]: < 0.1 µM | IC50 [2, 4]: 1 to 10 µM
Structure (SMILES): COCCN1CCc2cc(Nc3ncc(Cl)c(Nc4ccccc4S(=O)(=O)N(C)C)n3)c(OC)cc2CC1 [Example 1165, 2-{5-Chloro-2-[8-methoxy-3-(2-methoxy-ethyl)-2,3,4,5-tetrahydro-1H-benzo[d]azepin-7-ylamino]-pyrimidin-4-ylamino}-N,N-dimethyl-benzenesulfonamide]

IC50 [1, 3]: < 0.1 µM | IC50 [2, 4]: 0.1 to 1 µM
Structure (SMILES): CCCCNC(=O)c1ccccc1Nc1nc(Nc2ccc3c(c2)CCN(CCOC)CC3)ncc1Cl [Example 1028, N-Butyl-2-{5-chloro-2-[3-(2-methoxy-ethyl)-2,3,4,5-tetrahydro-1H-benzo[d]azepin-7-ylamino]-pyrimidin-4-ylamino}-benzamide]

IC50 [1, 9]: < 0.1 µM | IC50 [2, 10]: < 0.1 µM
Structure (SMILES): CNC(=O)c1ccccc1Nc1nc(Nc2ccc3c(c2)CCN(C)CC3)ncc1Cl [Example 46, 2-[5-Chloro-2-(3-methyl-2,3,4,5-tetrahydro-1H-benzo[d]azepin-7-ylamino)-pyrimidin-4-ylamino]-N-methyl-benzamide]

IC50 [1, 5]: < 0.1 µM | IC50 [2, 6]: > 10 µM
Structure (SMILES): COCC(COC)N1CCc2cc(Nc3ncc(Cl)c(Nc4ccccc4S(=O)(=O)C(C)C)n3)c(OC)cc2CC1 [Example 817, 5-Chloro-N*2*-[8-methoxy-3-(2-methoxy-1-methoxymethyl-ethyl)-2,3,4,5-tetrahydro-1H-benzo[d]azepin-7-yl]-N*4*-[2-(propane-2-sulfonyl)-phenyl]-pyrimidine-2,4-diamine]

IC50 [1, 3]: < 0.1 µM | IC50 [2, 4]: > 10 µM
Structure (SMILES): COc1cc2c(cc1Nc1ncc(Cl)c(Nc3ccccc3S(=O)(=O)C(C)C)n1)CCN(C(CF)CF)CC2 [Example 1394, Chloro-N(2)-[3-(2-fluoro-1-fluoromethyl-ethyl)-8-methoxy-2,3,4,5-tetrahydro-1H-benzo[d]azepin-7-yl]-N(4)-[2-(propane-2-sulfonyl)-phenyl]-pyrimidine-2,4-diamine]

IC50 [1, 3]: < 0.1 µM | IC50 [2, 4]: > 10 µM
Structure (SMILES): CCCNC(=O)c1ccccc1Nc1nc(Nc2cc3c(cc2OC)CCN(CCOC)CC3)ncc1Cl [Example 1026, 2-{5-Chloro-2-[8-methoxy-3-(2-methoxy-ethyl)-2,3,4,5-tetrahydro-1H-benzo[d]azepin-7-ylamino]-pyrimidin-4-ylamino}-N-propyl-benzamide]

IC50 [1, 3]: < 0.1 µM | IC50 [2, 4]: 0.1 to 1 µM
Structure (SMILES): COCCN1CCc2ccc(Nc3ncc(Cl)c(Nc4ccccc4C(=O)NCC(C)C)n3)cc2CC1 [Example 1396, {5-Chloro-2-[3-(2-methoxy-ethyl)-2,3,4,5-tetrahydro-1H-benzo[d]azepin-7-ylamino]-pyrimidin-4-ylamino}-N-isobutyl-benzamide]

IC50 [1, 5]: < 0.1 µM | IC50 [2, 6]: 1 to 10 µM
Structure (SMILES): COCCN1CCc2ccc(Nc3ncc(Cl)c(Nc4ccc(N(C)C)cc4S(=O)(=O)N(C)C)n3)cc2CC1 [Example 852, 2-{5-Chloro-2-[3-(2-methoxy-ethyl)-2,3,4,5-tetrahydro-1H-benzo[d]azepin-7-ylamino]-pyrimidin-4-ylamino}-5-dimethylamino-N,N-dimethyl-benzenesulfonamide]

IC50 [1, 9]: 0.1 to 1 µM | IC50 [2, 10]: 1 to 10 µM
Structure (SMILES): COCCN1CCc2ccc(Nc3ncc(Cl)c(NCC(C)NS(C)(=O)=O)n3)cc2CC1 (stereo not shown) [Example 301, N-(2-{5-Chloro-2-[3-(2-methoxy-ethyl)-2,3,4,5-tetrahydro-1H-benzo[d]azepin-7-ylamino]-pyrimidin-4-ylamino}-1-methyl-ethyl)-methanesulfonamide]
